Measured values from EP0360437A1, “Biocidal polylamine-amides” (priority 1988, dated 1990).
Like-named read-outs stand apart in the source and are kept apart here.

Tested on: complex formed by the invertebrate L-quisqualate sub-type L-glutamate receptor and its ion channel
Set-up: species or system Schistocerca gregaria
Procedure: The compounds were assayed for biological activity on the isolated, retractor unguis nerve-muscle preparation of the locust Schistocerca gregaria (Usherwood, P.N.R and Machili, P. (1968) J. Exp. Biol., 49: 341.). Isolated muscle preparations were bathed continuously in standard locust saline in a bath of volume 250µl. Twitch tension recordings of the muscle were made to electrical stimulation of its motor innervation supramaximal voltage, frequency 0.1Hz).
The locust isolated retractor unguis nerve-muscle is a preparation with well characterised muscle receptors belonging to the quisqualate-sensitive class (Boden, P. et al., (1986) Brain Res., 385: 205.). This preparation has previously been employed to identify antogonists of excitatory amino acid receptors, (e.g. Bateman, A. et al., (1985) Brain Res., 339: 237 and Budd, T. et al., (1988) Brain Res., 448: 30.).
The potency of this monocylated spermine as an antagonist of the complex formed by the invertebrate L-quisqualate sub-type L-glutamate receptor and its ion channel was assayed using the electrically stimulated retractor unguis muscle of the locust (Schistocerca gregaria). Twitch amplitude was reduced (1% inhibition) from control (100%) levels at the following concentrations: […]

NCCCNCCCNCCCNC(=O)Cc1ccc(O)cc1 [Example 21, N-(4-Hydroxyphenylacetyl)-N′,N˝-bis(3-aminopropyl)-1,3-propanediamine]
Twitch amplitude was reduced from control (100%) levels (10⁻⁴M): approximately 30%

NCCCNCCCCNCCCNC(=O)CCc1ccc(O)cc1 [Example 22, N-(4-Hydroxyphenylpropanoyl)-spermine]
Twitch amplitude was reduced from control levels (1.45x 10^-5M): 38% | Twitch amplitude was reduced from control levels (1.45x 10^-6M): 30% | Twitch amplitude was reduced from control levels (2.9 x 10^-5M): 81% | Twitch amplitude was reduced from control levels (2.9 x 10^-6M): 38% | Twitch amplitude was reduced from control levels (2.9 x 10^-7M): 25% | Twitch amplitude was reduced from control levels (2.9 x 10^-8M): 10% | Twitch amplitude was reduced from control levels (7.25x 10^-5M): 100% | IC50 (reduction of twitch amplitude, retractor unguis muscle, read-out: IC₅₀): 6 µM

NCCCNCCCCNCCCNC(=O)CCc1cccc(O)c1 [Example 5, N(3-Hydroxyphenylpropanoyl)-spermine]
inhibition of twitch (1.08 x 10⁻⁶M): 15% | inhibition of twitch (1.08 x 10⁻⁷M): 10%

NCCCNCCCCNCCCNC(=O)Cc1ccccc1O [Example 1, N-(2-Hydroxyphenylacetyl)-spermine]
inhibition of twitch (1.5 x 10⁻⁴M): 85% | inhibition of twitch (1.5 x 10⁻⁵M): 30% | inhibition of twitch (3 x 10⁻⁴M): 90% | inhibition of twitch (3 x 10⁻⁵M): 30% | inhibition of twitch (3 x 10⁻⁶M): 20% | inhibition of twitch (3 x 10⁻⁷M): 15% | inhibition of twitch (3 x 10⁻⁸M): 10% inhibition of twitch

NCCCNCCCCNCCCNC(=O)c1ccccc1O [Example 10]
Twitch amplitude was reduced from control level (1.09 x 10⁻⁵M): approximately 25%

NCCCNCCCCNCCCNC(=O)Cc1ccc(O)cc1 [Example 3, N-(4-Hydroxyphenylacetyl)-spermine]
Twitch amplitude was reduced from control (100%) levels (2.95x 10⁻⁵M): 74% | Twitch amplitude was reduced from control (100%) levels (4.43x 10⁻⁵M): 91% | Twitch amplitude was reduced from control (100%) levels (5.9 x 10⁻⁵M): 96% | Twitch amplitude was reduced from control (100%) levels (5.9 x 10⁻⁶M): 25% | Twitch amplitude was reduced from control (100%) levels (5.9 x 10⁻⁷M): 9%

NCCCNCCCCNCCCNC(=O)c1cccc(O)c1 [Example 11, N-(3-Hydroxybenzoyl)-spermine]
Twitch amplitude was reduced from control levels (1.02 x 10⁻⁵M): approximately 40%

NCCCNCCCCNCCCNC(=O)C=Cc1ccc(O)cc1 [Example 6, N-(4-Hydroxycinnamoyl)-spermine]
Twitch amplitude was reduced from control (100%) levels (10⁻¹⁰M): 4% | Twitch amplitude was reduced from control (100%) levels (10⁻⁵M): 70% | Twitch amplitude was reduced from control (100%) levels (10⁻⁶M): 56% | Twitch amplitude was reduced from control (100%) levels (10⁻⁷M): 33% | Twitch amplitude was reduced from control (100%) levels (10⁻⁸M): 24% | Twitch amplitude was reduced from control (100%) levels (10⁻⁹M): 18%

NCCCNCCCCNCCCNC(=O)Cc1cc(O)cc(O)c1 [Example 9, N-(3,5-Dihydroxyphenylacetyl)-spermine]
Twitch amplitude was reduced from control levels (1 07 x 10⁻⁶M): 25% | Twitch amplitude was reduced from control levels (1.07 x 10⁻⁵M): 45%

NCCCNCCCNCCCNC(=O)Cc1cccc(O)c1 [Example 20, N-(3-Hydroxyphenylacetyl)-N′,N˝-bis(3-aminopropyl)-1,3-propanediamine]
Twitch amplitude was reduced from control (100%) levels (1.04 x 10⁻⁴M): approximately 60%

NCCCNCCCCNCCCNC(=O)C=Cc1cccc(O)c1 [Example 13, N-(3-Hydroxycinnamoyl)-spermine]
Twitch amplitude was reduced from control levels (9.2 x 10⁻⁷M): approximately 25%

NCCCNCCCCNCCCNC(=O)Cc1cccc(O)c1 [Example 2, N-(3-Hydroxyphenylacetyl)-spermine]
inhibition of twitch (3 x 10⁻⁷M): 35% | inhibition of twitch (3 x 10⁻⁸M): 30%
